Measured values reported in patent publication US20230001083A1, “ACTUATABLE DEVICE FOR PULSATILE DRUG DELIVERY” (Massachusetts Institute of Technology, priority 2019, published 2023).
Read-outs that look alike come from different tables or passages of the source.

Experiments:
[1] = Stability of drug formulation stored in the pump at 37° C.; type: physicochemical; settings: stored in the pump at 37° C. for 4 weeks
[2] = In vivo pharmacokinetics of lisinopril, pump versus subcutaneous injection; settings: for Cmax: plasma, read-out: maximum plasma concentration (Cmax)
Experimental: The time taken to reach the Cmax (Tmax) was 30 min in both groups. […] Drug leakage in the implanted pump was not detected during the non-actuation periods over a 28-day period.

| Compound | stability of formulation in the pump [1] | Cmax ([2]; other: implanted pump, Pump-lisinopril group) | Cmax ([2]; sc, Inj-lisinopril group (subcutaneous injection)) | area under the curve of plasma lisinopril concentration versus time (AUC) ([2]; pump group) | area under the curve of plasma lisinopril concentration versus time (AUC) ([2]; subcutaneous injection group) |
| --- | --- | --- | --- | --- | --- |
| CC(C)C[C@H]1C(=O)N2CCC[C@H]2[C@]2(O)O[C@](NC(=O)[C@@H]3C=C4c5cccc6[nH]c(Br)c(c56)C[C@H]4N(C)C3)(C(C)C)C(=O)N12 [bromocriptine] | stable without apparent denaturation |  |  |  |  |
| NCCCC[C@H](N[C@@H](CCc1ccccc1)C(=O)O)C(=O)N1CCC[C@H]1C(=O)O [lisinopril] |  | 394 ± 83.2 ng/mL | 323 ± 64.7 ng/mL | 25335.5 ± 7640.9 ng·min/mL | 24484.5 ± 5643.8 ng·min/mL |
